Source: BindingDB's records for doi:10.1021/acs.jmedchem.0c00546 (University of Tennessee, 2020)

Target: T1, Dihydrofolate reductase (Homo sapiens, UniProt P00374)
T1 sequence (P00374 whole entry): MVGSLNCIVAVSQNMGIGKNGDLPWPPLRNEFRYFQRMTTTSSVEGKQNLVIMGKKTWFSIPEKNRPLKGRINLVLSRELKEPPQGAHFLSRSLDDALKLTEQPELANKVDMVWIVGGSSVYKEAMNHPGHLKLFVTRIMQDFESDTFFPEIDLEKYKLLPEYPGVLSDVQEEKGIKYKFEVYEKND
Experiment: Inhibition of human DHFR in presence of DHF and NADPH by UV-vis spectrometry by Lineweaver-Burk plot analysis

| SMILES | Ki [µM] |
| --- | --- |
| N[C@H](Cc1c[nH]c2ccccc12)C(=O)O [(2R)-2-amino-3-(1H-indol-3-yl)propanoic acid] | 880 |
| Nc1ccnc(N)n1 [Diaminopyrimidine] | 180 |
